ChEMBL document CHEMBL1151040, “Synthetic inhibitors of interleukin-6 I: 2,3,7,8-tetrahydro-4-aryl-1H-cyclopent [e] imidazo [1,2-a]- pyridin-5(6H)-one and related compounds” (Bioorg Med Chem Lett, 1995)

Tests used:
WEHI265.1 [1] = assay: In vitro inhibitory activity against lipopolysaccharide (LPS)-induced interleukin 6 production in murine myelomonocytic leukemia (WEHI-265.1) cells at a concentration of 10 uM; format: functional; conditions: Mus musculus
Mus musculus [2] = assay: Effective dose of compound against serum interleukin 6 (IL-6) in C3H mice when administered intraperitoneally; format: functional; conditions: ip
WEHI265.1 [3] = assay: In vitro inhibitory activity against lipopolysaccharide (LPS)-induced interleukin 6 (IL-6) production in murine myelomonocytic leukemia (WEHI-265.1) cells; format: functional, cell-based; conditions: Mus musculus
Mus musculus [4] = assay: Inhibitory activity against LPS-induced interleukin 6 (IL-6) in the serum of C3H mice, at a dose of 25 mpk by oral administration; format: functional
WEHI265.1 [5] = assay: In vitro inhibitory activity against lipopolysaccharide (LPS) -induced IL-6 production in murine myelomonocytic uM; format: functional, Mus musculus
Mus musculus [6] = assay: Inhibitory activity against LPS-induced interleukin 6 (IL-6) in the serum of C3H mice, at a dose of 25 mpk by intraperitoneal administration; format: functional; conditions: ip
Mus musculus [7] = assay: Effective dose of compound against serum interleukin 6 (IL-6) in C3H mice when administered orally; format: functional; conditions: po

Row | Structure (SMILES) | inhibition at 10 µM (WEHI265.1 [1]) | IC50 (WEHI265.1 [3]) | other results
1 | OC1=C(c2cccnc2)C2=NCCN2C2=C1CCC2 | 0% | – | –
2 | OC1=CC2=NCCN2C2=C1CCC2 | 38% | – | –
3 | CCOC(=O)C1=C(O)C2=C(CCC2)N2CCN=C12 | 58% | – | –
4 | OC1=C(Sc2ccccc2)C2=NCCN2C2=C1CCC2 | 63% | – | –
5 | CN1CCn2c3c(c(=O)c(-c4ccccc4)c21)CCC3 | 27% | – | –
6 | OC1=C(c2ccccc2C(F)(F)F)C2=NCCN2C2=C1CCC2 | 90% | – | –
7 | COc1ccccc1-c1c2n(c3c(c1=O)CCC3)CCN2 | 82% | – | ED50 (Mus musculus [2]): 0.3 mg/kg
8 | CC(=O)Nc1ccccc1-c1c2n(c3c(c1=O)CCC3)CCN2 | 74% | 5 µM | –
9 | Nc1ccccc1-c1c2n(c3c(c1=O)CCC3)CCN2 | 82% | 2 µM | inhibition in vivo at 25 mg/kg (Mus musculus [4]): 72%; ED50 (Mus musculus [2]): 4 mg/kg
10 | O=c1c2c(n3c(c1-c1ccccc1Cl)NCC3)CCC2 | 90% | 4 µM | ED50 (Mus musculus [2]): 0.5 mg/kg
11 | O=c1c2c(n3c(c1-c1ccccc1)N(Cc1ccccc1)CC3)CCC2 | 43% | – | –
12 | O=c1c2c(n3c(c1-c1ccccc1)OCC3)CCC2 | 20% | – | –
13 | O=[N+]([O-])c1ccccc1C1=C(O)C2=C(CCC2)N2CCN=C12 | 73% | 6 µM | inhibition in vivo at 25 mg/kg (Mus musculus [4]): 78%; ED50 (Mus musculus [2]): 8 mg/kg
14 | O=c1c2c(n3c(c1-c1ccccc1)SCC3)CCC2 | 52% | – | –
15 | OC1=C(c2ccccn2)C2=NCCN2C2=C1CCC2 | 55% | – | –
16 | OC1=C(c2ccccc2O)C2=NCCN2C2=C1CCC2 | 55% | – | –
17 | CSC1=C(O)C2=C(CCC2)N2CCN=C12 | 77% | – | –
18 | CCOC(=O)c1cccc(C2=C(O)C3=C(CCC3)N3CCN=C23)c1 | 83% | 0.6 µM | –
19 | O=C(O)c1cccc(C2=C(O)C3=C(CCC3)N3CCN=C23)c1 | 0% | – | –
20 | OC1=C(c2ccccc2)C2=NCCN2C2=C1CCC2 | – | 0.2 µM | Inhibition (WEHI265.1 [5]): 74%; inhibition in vivo at 25 mg/kg (Mus musculus [4]): 39%; ED50 (Mus musculus [2]): 0.35 mg/kg; inhibition in vivo at 25 mg/kg (Mus musculus [6]): 77%; ED50 (Mus musculus [7]): 32 mg/kg
